{"source": "paper PMC7572726", "about": "(Nature, 2020)", "assay_in_all_cases": "EMSA", "format_in_all_cases": "binding", "settings_in_all_cases": "labelled compound (32P, ~1 uM), 20 uM protein; pH 7.5, 25 C", "key": {"NdSTING": {"target": "T1, NdSTING (Niabella drilacis, UniProt A0A1G6LGU2)", "T1 sequence (A0A1G6LGU2 1-312)": "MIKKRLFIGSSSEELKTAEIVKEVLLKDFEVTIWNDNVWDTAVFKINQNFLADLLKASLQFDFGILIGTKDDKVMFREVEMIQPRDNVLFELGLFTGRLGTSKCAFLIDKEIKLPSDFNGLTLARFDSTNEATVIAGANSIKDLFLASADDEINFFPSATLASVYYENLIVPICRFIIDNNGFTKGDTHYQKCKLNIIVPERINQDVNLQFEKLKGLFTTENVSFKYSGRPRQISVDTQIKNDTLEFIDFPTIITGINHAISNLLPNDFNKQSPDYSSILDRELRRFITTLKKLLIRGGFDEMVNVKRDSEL"}, "AaSTING": {"target": "AaSTING (Aggregatibacter actinomycetemcomitans, UniProt A0A5D0EMF2)", "sequence (A0A5D0EMF2 whole entry)": "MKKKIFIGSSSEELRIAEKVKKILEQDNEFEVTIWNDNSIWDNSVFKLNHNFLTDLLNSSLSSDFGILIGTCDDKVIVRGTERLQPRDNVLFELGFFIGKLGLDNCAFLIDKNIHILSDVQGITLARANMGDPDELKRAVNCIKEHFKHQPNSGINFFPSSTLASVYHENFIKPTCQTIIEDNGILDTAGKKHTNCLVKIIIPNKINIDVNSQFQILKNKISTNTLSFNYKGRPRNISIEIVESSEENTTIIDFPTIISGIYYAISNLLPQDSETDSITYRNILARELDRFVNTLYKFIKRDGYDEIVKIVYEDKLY"}, "LbSTING": {"target": "T2, LbSTING (Lachnospiraceae bacterium RUG226, UniProt P0DUE0)", "T2 sequence (P0DUE0 1-316)": "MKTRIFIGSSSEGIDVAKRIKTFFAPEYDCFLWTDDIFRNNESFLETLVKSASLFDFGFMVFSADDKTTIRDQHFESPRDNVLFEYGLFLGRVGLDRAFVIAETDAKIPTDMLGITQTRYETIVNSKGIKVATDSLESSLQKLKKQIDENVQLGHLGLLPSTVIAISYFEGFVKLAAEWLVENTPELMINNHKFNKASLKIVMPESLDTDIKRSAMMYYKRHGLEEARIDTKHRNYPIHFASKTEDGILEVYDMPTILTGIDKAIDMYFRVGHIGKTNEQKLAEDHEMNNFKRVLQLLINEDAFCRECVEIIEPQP"}, "FdSTING": {"target": "T3, FdSTING (Flavobacterium daejeonense, UniProt P0DUD9)", "T3 sequence (P0DUD9 1-311)": "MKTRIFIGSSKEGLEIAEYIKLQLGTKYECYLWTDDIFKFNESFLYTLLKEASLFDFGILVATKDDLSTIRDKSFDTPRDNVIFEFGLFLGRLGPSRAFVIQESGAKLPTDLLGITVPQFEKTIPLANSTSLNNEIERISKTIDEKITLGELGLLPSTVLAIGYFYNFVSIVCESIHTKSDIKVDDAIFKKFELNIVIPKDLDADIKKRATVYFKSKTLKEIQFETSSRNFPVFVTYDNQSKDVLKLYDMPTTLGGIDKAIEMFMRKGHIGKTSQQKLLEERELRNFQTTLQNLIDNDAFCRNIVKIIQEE"}}, "data": [{"smiles": "Nc1nc2c(ncn2[C@@H]2O[C@@H]3COP(=O)(O)O[C@H]4[C@@H](O)[C@H](n5cnc6c(=O)[nH]c(N)nc65)O[C@@H]4COP(=O)(O)O[C@H]3[C@H]2O)c(=O)[nH]1", "note": "[c-di-GMP]", "values": [{"measurement": "EMSA", "setting": "NdSTING", "value": "diverse panel of bacterial STING homologues demonstrates conservation of c-di-GMP binding"}, {"measurement": "EMSA", "setting": "AaSTING", "value": "Bacterial STING receptors specifically recognize c-di-GMP"}, {"measurement": "EMSA", "setting": "LbSTING", "value": "Bacterial STING receptors specifically recognize c-di-GMP"}, {"measurement": "EMSA", "setting": "FdSTING", "value": "diverse panel of bacterial STING homologues demonstrates conservation of c-di-GMP binding"}]}]}
